Assay results published in US11857515B2, “Branched amino acid surfactants for use in healthcare products” (AdvanSix Resins & Chemicals LLC, priority 2020, dated 2024).
Several values for one entry are separate records, joined by “and”; a condition that tells them apart may be missing. Identical values can stand only once.

Experiments:
Assay type in all cases: physicochemical
[1] = Critical micelle concentration (CMC) from surface tension versus concentration, Wilhelmy plate method; details: for minimum surface tension that can be reached (plateau / asymptotic value) / critical micelle concentration (CMC): in water; for minimum surface tension that can be reached (plateau / asymptotic value) / surface tension at the CMC: pH=7; for surface tension at the CMC: from plot of surface tension versus concentration
Source text: As surfactant concentration increases, surface tension decreases. Once the surface is completely overlaid with surfactant molecules, micelles begin to form. This point represents the CMC, as well as the minimum surface tension. Further addition of surfactant will not further affect the surface tension. CMC may therefore be measured by observing the change in surface tension as a function of surfactant concentration. One such method for measuring this value is the Wilhemy plate method. A Wilhelmy plate is usually a thin iridium-platinum plate attached to a balance by a wire and placed perpendicularly to the air-liquid interface. The balance is used to measure the force exerted on the plate by wetting. This value is then used to calculate the surface tension (γ) according to Equation 1: γ=F/I cos θ Equation 1: wherein I is equal to the wetted perimeter (2w+2d, in which w and d are the […], respectively) and cos θ, the contact angle between the liquid and the plate, is assumed to be 0 in the absence of an extant literature value.
(§1) Nuclear magnetic resonance (NMR) spectroscopy was performed on a Bruker 500 MHz spectrometer. The critical micelle concentration (CMC) was determined by the Wilhelmy plate method at 23° C. with a tensiometer (DCAT 11, DataPhysics Instruments GmbH) equipped with a Pt—Ir plate. Dynamic surface tension was determined with a bubble pressure tensiometer (Krüss BP100, Krüss GmbH), at 23° C. Contact angle was determined with the optical contact angle goniometer (OCA 15 Pro, DataPhysics GmbH) equipped with a digital camera.
The critical micelle concentration (CMC) of the 6-((2-butyloctyl)oxy)-N,N,N-trimethyl-6-oxohexan-1-aminium iodide from Example 1a was tested. […] From the plot of the results, the surface tension at the CMC is equal to or less than about 27 mN/m.
The critical micelle concentration (CMC) of the 6-((2-butyloctyl)oxy)-N,N-dimethyl-6-oxohexan-1-aminium 4-methylbenzenesulfonate from Example 2a was tested. From the change in surface tension with concentration in water, the CMC was determined to be about 0.97 mmol. The plateau value of minimum surface tension that can be reached by this surfactant is about 27 mN/m, namely 27 mN/m±3 mN/m. […] From the plot of the results, the surface tension at the CMC is equal to or less than about 30 mN/m.

[2] = Dynamic surface tension, bubble pressure tensiometer; details: 23° C.
Protocol: One method by which dynamic surface tension is measured relies upon a bubble pressure tensiometer. This device measures the maximum internal pressure of a gas bubble that is formed in a liquid by means of a capillary. The measured value corresponds to the surface tension at a certain surface age, the time from the start of the bubble formation to the occurrence of the pressure maximum. The dependence of surface tension on surface age can be measured by varying the speed at which bubbles are produced.
as §1
The dynamic surface tension of the 6-((2-butyloctyl)oxy)-N,N-dimethyl-6-oxohexan-1-aminium 4-methylbenzenesulfonate from Example 2a was determined with a bubble pressure tensiometer which measures the change of surface tension of a freshly created air-water interface with time. FIG. 2B presents a plot of the surface tension versus time, showing that surface tension in the time interval between 10 and 100 ms drops rapidly from about 46 mN/m to about 30 mN/m. In the time interval from 100 to 8,000 ms, the surface tension drops slowly from 30 mN/m to about 27 mN/m, approaching asymptotically the saturation value of the surface tension at the CMC.

[3] = Wetting properties: contact angle on solid substrates, optical contact angle goniometer; details: 10x CMC
Source text: Surface-active compounds may also be assessed by their wetting ability on solid substrates as measured by the contact angle. When a liquid droplet comes in contact with a solid surface in a third medium, such as air, a three-phase line forms among the liquid, the gas and the solid. The angle between the surface tension unit vector, acting at the three-phase line and tangent at the liquid droplet, and the surface is described as the contact angle. The contact angle (also known as wetting angle) is a measure of the wettability of a solid by a liquid. In the case of complete wetting, the liquid is completely spread over the solid and the contact angle is 0°. Wetting properties are typically measured for a given compound at the concentration of 1-10×CMC, however, it is not a property that is concentration-dependent therefore measurements of wetting properties can be measured at concentrations that are higher or lower.
In one method, an optical contact angle goniometer may be used to measure the contact angle. This device uses a digital camera and software to extract the contact angle by analyze the contour shape of a sessile droplet of liquid on a surface.
as §1
In addition to surface tension and surface dynamics, the wetting properties of the 6-((2-butyloctyl)oxy)-N,N-dimethyl-6-oxohexan-1-aminium 4-methylbenzenesulfonate from Example 2a were tested on various surfaces.

[4] = substrate Polyethylene terephthalate

Q: For `CCCCCCC(CCCC)COC(=O)CCCCCN(C)C.Cl` (stereo not shown) [Example 3a, 6-((2-butyloctyl)oxy)-N,N-dimethyl-6-oxohexan-1-aminium chloride], which “minimum surface tension that can be reached (plateau / asymptotic value)” value ([1]; 23° C.) is on record?
A: Its value is “about 29 mN/m”.

Q: With `CCCCCCC(CCCC)COC(=O)CCCCCN(C)C.Cc1ccc(S(=O)(=O)O)cc1` (stereo not shown) [Example 2a, 6-((2-butyloctyl)oxy)-N,N-dimethyl-6-oxohexan-1-aminium 4-methylbenzenesulfonate] as the molecule, how does the dynamic surface tension ([2]; surface age 10 ms) read?
A: Its dynamic surface tension is “about 46 mN/m”.

Q: What about the dynamic surface tension ([2]; surface age 100 ms) of the same molecule?
A: Its dynamic surface tension is “about 30 mN/m”.

Q: And the dynamic surface tension ([2]; surface age 8,000 ms)?
A: Its dynamic surface tension is “about 27 mN/m”.

Q: What about the “surface tension at the CMC” value [1] of the same molecule?
A: The value was no more than 30 mN/m.

Q: What about the “minimum surface tension that can be reached (plateau / asymptotic value)” value ([1]; 23° C.) of the same molecule?
A: Its value is “about 27 mN/m”.

Q: And the “critical micelle concentration (CMC)” value ([1]; 23° C., pH=7, Wilhelmy plate)?
A: Its value is “about 0.97 mmol”.

Q: And the “CA of Surfactant (contact angle)” value ([3]; substrate Nylon)?
A: Its value is 13.5 °.

Q: What about the “CA of Surfactant (contact angle)” value [3, 4] of the same molecule?
A: The value was 7.7 °.

Q: And the “CA of Surfactant (contact angle)” value ([3]; substrate Polyethylene-HD)?
A: The value was 24.3 °.

Q: And the “CA of Surfactant (contact angle)” value ([3]; substrate Teflon)?
A: Its value is 48.2 °.

Q: With `CCCCCCC(CCCC)COC(=O)CCCCC[N+](C)(C)C.[I-]` (stereo not shown) [Example 1a, 6-((2-butyloctyl)oxy)-N,N,N-trimethyl-6-oxohexan-1-aminium iodide] as the molecule, how does the “critical micelle concentration (CMC), not clearly determined up to this concentration” value ([1]; 23° C., pH=7, Wilhelmy plate) read?
A: The value was greater than 10 mg/mL.

Q: What about the “surface tension at the CMC” value [1] of the same molecule?
A: Its value is no more than 27 mN/m.

Q: And the “minimum surface tension that can be reached (plateau / asymptotic value)” value ([1]; 23° C.)?
A: The value was “about 27 mN/m”.

Q: With `CCCCCCC(CCCC)COC(=O)CCCCCN.Cc1ccc(S(=O)(=O)O)cc1` (stereo not shown) [Example 7a, 6-((2-butyloctyl)oxy)-6-oxohexan-1-aminium 4-methylbenzenesulfonate] as the molecule, how does the dynamic surface tension ([2]; surface age 10 ms) read?
A: Its dynamic surface tension is “about 46 mN/m”.

Q: What about the dynamic surface tension ([2]; surface age 100 ms) of the same molecule?
A: Its dynamic surface tension is “about 30 mN/m”.

Q: And the dynamic surface tension ([2]; surface age 8,000 ms)?
A: The dynamic surface tension was “about 27 mN/m”.

Q: What about the surface tension ([1]; at a concentration of about 1.0 mmol or greater) of the same molecule?
A: The surface tension was no more than 28.5 mN/m.

Q: What about the “surface tension at the CMC” value [1] of the same molecule?
A: Its value is no more than 30 mN/m.

Q: And the “minimum surface tension that can be reached (plateau / asymptotic value)” value ([1]; 23° C.)?
A: Its value is “about 27 mN/m”.

Q: What about the “critical micelle concentration (CMC)” value ([1]; 23° C., pH=7, Wilhelmy plate) of the same molecule?
A: Its value is “about 2.12 mmol”.

Q: What about the “CA of Surfactant (contact angle)” value ([3]; substrate Nylon) of the same molecule?
A: The value was 12.6 °.

Q: What about the “CA of Surfactant (contact angle)” value [3, 4] of the same molecule?
A: The value was 13.2 °.

Q: What about the “CA of Surfactant (contact angle)” value ([3]; substrate Polyethylene-HD) of the same molecule?
A: The value was 14.6 °.

Q: And the “CA of Surfactant (contact angle)” value ([3]; substrate Teflon)?
A: The value was 49.4 °.

Q: Which dynamic surface tension ([2]; surface age 10 ms) does the source give for `CCCCCCC(CCCC)COC(=O)CCCCC[N+](C)(C)[O-]` (stereo not shown) [Example 5a, 2-butyloctyl 6-(dimethylamino)hexanoate N-oxide] here?
A: Its dynamic surface tension is “about 60 mN/m”.

Q: And the dynamic surface tension ([2]; surface age 1,000 ms)?
A: Its dynamic surface tension is “about 30 mN/m”.

Q: What about the dynamic surface tension ([2]; surface age 8,000 ms) of the same molecule?
A: The dynamic surface tension was “about 28 mN/m”.

Q: And the “surface tension at the CMC” value [1]?
A: Its value is no more than 28 mN/m.

Q: And the “minimum surface tension that can be reached (plateau / asymptotic value)” value ([1]; 23° C.)?
A: Its value is “about 28 mN/m”.

Q: What about the “critical micelle concentration (CMC)” value ([1]; 23° C., pH=7, Wilhelmy plate) of the same molecule?
A: Its value is “about 0.29 mmol”.

Q: What about the “CA of Surfactant (contact angle)” value ([3]; substrate Nylon) of the same molecule?
A: Its value is 38.5 °.

Q: And the “CA of Surfactant (contact angle)” value [3, 4]?
A: The value was 9.2 °.

Q: And the “CA of Surfactant (contact angle)” value ([3]; substrate Polyethylene-HD)?
A: Its value is 31.6 ° and 31.9 °.

Q: And the “CA of Surfactant (contact angle)” value ([3]; substrate Teflon)?
A: Its value is 41.5 ° and 41.0 °.

Q: Which results are given for `CCCCCCC(CCCC)COC(=O)CCCCCN.Cl` (stereo not shown) [Example 6a, 6-((2-butyloctyl)oxy)-6-oxohexan-1-aminium chloride]?
A: dynamic surface tension ([2]; surface age 10 ms): about 69 mN/m; dynamic surface tension ([2]; surface age 1,000 ms): about 49 mN/m; dynamic surface tension ([2]; surface age 8,000 ms): about 29 mN/m; surface tension at the CMC [1]: ≤ 30 mN/m; minimum surface tension that can be reached (plateau / asymptotic value) ([1]; 23° C.): about 27 mN/m; critical micelle concentration (CMC) ([1]; 23° C., pH=7, Wilhelmy plate): about 0.15 mmol; CA of Surfactant (contact angle) ([3]; substrate Nylon): 24.5 °; CA of Surfactant (contact angle) [3, 4]: 20.1 °; CA of Surfactant (contact angle) ([3]; substrate Polyethylene-HD): 25.8 °; CA of Surfactant (contact angle) ([3]; substrate Teflon): 48.7 °

Q: For `CCCCCCC(CCCC)COC(=O)CCCCC[N+](C)(C)CCCCS(=O)(=O)[O-]` (stereo not shown) [Example 4a, 4-((6-((2-butyloctyl)oxy)-6-oxohexyl)dimethylammonio)butane-1-sulfonate], which dynamic surface tension ([2]; surface age 10 ms) is on record?
A: The dynamic surface tension was “about 66 mN/m”.

Q: And the dynamic surface tension ([2]; surface age 100 ms)?
A: The dynamic surface tension was “about 36 mN/m”.

Q: And the dynamic surface tension ([2]; surface age 8,000 ms)?
A: The dynamic surface tension was “about 32 mN/m”.

Q: And the “surface tension at the CMC” value [1]?
A: Its value is no more than 32 mN/m.

Q: What about the “minimum surface tension that can be reached (plateau / asymptotic value)” value ([1]; 23° C.) of the same molecule?
A: Its value is “about 32 mN/m”.

Q: And the “critical micelle concentration (CMC)” value ([1]; 23° C., pH=7, Wilhelmy plate)?
A: Its value is “about 0.54 mmol”.

Q: And the “CA of Surfactant (contact angle)” value ([3]; substrate Nylon)?
A: Its value is 28.7 °.

Q: And the “CA of Surfactant (contact angle)” value [3, 4]?
A: Its value is 29.8 °.

Q: And the “CA of Surfactant (contact angle)” value ([3]; substrate Polyethylene-HD)?
A: The value was 44.4 °.

Q: What about the “CA of Surfactant (contact angle)” value ([3]; substrate Teflon) of the same molecule?
A: Its value is 62.2 °.
